Holding throughout (format): functional, organism-based
Test [1] deals with Leishmania braziliensis. Description: In vitro for leishmanicidal activity against Leishmania brasiliensis (2903) at the concentration of 10 ug/mL.
The subject of test [2] is Leishmania donovani. In words: In vitro for leishmanicidal activity against Leishmania donovani (PP75) at the concentration of 100 ug/mL.
Test [3] concerns Leishmania amazonensis. In words: Tested in vitro for leishmanicidal activity against Leishmania amazonensis (PH8) at the concentration of 50 ug/mL; + indicates less than 70% lysis of parasites.
Test [4] has as its system Leishmania braziliensis. In words: Tested in vitro for leishmanicidal activity against Leishmania brasiliensis (2903) at the concentration of 50 ug/mL;+ indicates Less than 70% lysis of parasites.
Test [5] deals with Leishmania amazonensis. In words: In vitro for leishmanicidal activity against Leishmania amazonensis (PH8) at 25 ug/mL; No lysis of parasites.
In test [6] the test system is Leishmania donovani. Description: In vitro for leishmanicidal activity against Leishmania donovani (PP75) at the concentration of 25 ug/mL.
In test [7] the test system is Leishmania donovani. Description: Tested in vitro for leishmanicidal activity against Leishmania donovani (PP75) at the concentration of 10 ug/mL.
The test system of test [8] is Leishmania braziliensis. In words: Tested in vitro for leishmanicidal activity against Leishmania brasiliensis (2903) at the concentration of 100 ug/mL;++ indicates 80-90% lysis of parasites.
In test [9] the test system is Leishmania amazonensis. Description: In vitro for leishmanicidal activity against Leishmania amazonensis (PH8) at the concentration of 10 ug/mL.
In test [10] the test system is Leishmania donovani. In words: Tested in vitro for leishmanicidal activity against Leishmania donovani (PP75) at the concentration of 50 ug/mL;+ indicates Less than 70% lysis of parasites.
The subject of test [11] is Leishmania braziliensis. Description: In vitro for leishmanicidal activity against Leishmania brasiliensis (2903) at the concentration of 25 ug/mL.
In test [12] the test system is Leishmania amazonensis. In words: In vitro for leishmanicidal activity against Leishmania amazonensis (PH8) at the concentration of 100 ug/mL.
For test [13], the system named is Leishmania donovani. Description: In vitro for leishmanicidal activity against Leishmania donovani (PP75) at the concentration of 10 ug/mL.
For test [14], the system named is Leishmania braziliensis. In words: Tested in vitro for leishmanicidal activity against Leishmania brasiliensis (2903) at the concentration of 25 ug/mL;+ indicates Less than 70% lysis of parasites.
The test system of test [15] is Leishmania amazonensis. In words: Tested in vitro for leishmanicidal activity against Leishmania amazonensis (PH8) at the concentration of 25 ug/mL; + indicates less than 70% lysis of parasites.
The test system of test [16] is Leishmania braziliensis. In words: In vitro for leishmanicidal activity against Leishmania brasiliensis (2903) at the concentration of 100 ug/mL.
Test [17] deals with Leishmania donovani. In words: Tested in vitro for leishmanicidal activity against Leishmania donovani (PP75) at the concentration of 25 ug/mL;+ indicates Less than 70% lysis of parasites.
For test [18], the system named is Leishmania braziliensis. In words: Tested in vitro for leishmanicidal activity against Leishmania brasiliensis (2903) at the concentration of 10 ug/mL;+ indicates Less than 70% lysis of parasites.
Test [19] relates to Leishmania amazonensis. In words: In vitro for leishmanicidal activity against Leishmania amazonensis (PH8) at the concentration of 50 ug/mL.
Test [20] concerns Leishmania braziliensis. In words: In vitro for leishmanicidal activity against Leishmania brasiliensis (2903) at the concentration of 50 ug/mL.
In test [21] the test system is Leishmania donovani. In words: In vitro for leishmanicidal activity against Leishmania donovani (PP75) at the concentration of 50 ug/mL.
Test [22] concerns Leishmania braziliensis. Description: Tested in vitro for leishmanicidal activity against Leishmania brasiliensis (2903) at the concentration of 25 ug/mL; ++ indicates 80-90%lysis of parasites.
Test [23] deals with Leishmania amazonensis. In words: Tested in vitro for leishmanicidal activity against Leishmania amazonensis (PH8) at the concentration of 25 ug/mL;++ indicates 80-90% lysis of parasites.
For test [24], the system named is Leishmania donovani. Description: Tested in vitro for leishmanicidal activity against Leishmania donovani (PP75) at the concentration of 25 ug/mL;++ indicates 80-90%lysis of parasites.
Test [25] has as its system Leishmania braziliensis. In words: Tested in vitro for leishmanicidal activity against Leishmania brasiliensis (2903) at the concentration of 25 ug/mL;++ indicates 80-90% lysis of parasites.
The subject of test [26] is Leishmania donovani. Description: Tested in vitro for leishmanicidal activity against Leishmania donovani (PP75) at the concentration of 50 ug/mL;++ indicates 80-90% lysis of parasites.
Test [27] concerns Leishmania amazonensis. In words: Tested in vitro for leishmanicidal activity against Leishmania amazonensis (PH8) at the concentration of 50 ug/mL;++ indicates 80-90% lysis of parasites.
In test [28] the test system is Leishmania braziliensis. In words: Tested in vitro for leishmanicidal activity against Leishmania brasiliensis (2903) at the concentration of 50 ug/mL;++ indicates 80-90% lysis of parasites.
Test [29] deals with Leishmania braziliensis. Description: Tested in vitro for leishmanicidal activity against Leishmania brasiliensis (2903) at the concentration of 10 ug/mL; + indicates Less than 70% lysis of parasites.
The test system of test [30] is Leishmania braziliensis. Description: Tested in vitro for leishmanicidal activity against Leishmania brasiliensis (2903) at the concentration of 25 ug/mL; + indicates Less than 70% lysis of parasites.
Test [31] concerns Leishmania braziliensis. In words: Tested in vitro for leishmanicidal activity against Leishmania brasiliensis (2903) at the concentration of 10 ug/mL; + indicatesLess than 70% lysis of parasites.
Test [32] deals with Leishmania amazonensis. Description: Tested in vitro for leishmanicidal activity against Leishmania amazonensis (PH8) at the concentration of 25 ug/mL; ++ indicates 80-90% lysis of parasites.
The subject of test [33] is Leishmania braziliensis. Description: Tested in vitro for leishmanicidal activity against Leishmania brasiliensis (2903) at the concentration of 25 ug/mL; ++ indicates 80-90% lysis of parasites.
Test [34] relates to Leishmania donovani. In words: Tested in vitro for leishmanicidal activity against Leishmania donovani (PP75) at the concentration of 25 ug/mL;++ indicates 80-90% lysis of parasites.
Test [35] has as its system Leishmania amazonensis. Description: Tested in vitro for leishmanicidal activity against Leishmania amazonensis (PH8) at the concentration of 50 ug/mL; ++ indicates 80-90% lysis of parasites.
The subject of test [36] is Leishmania donovani. In words: Tested in vitro for leishmanicidal activity against Leishmania donovani (PP75) at the concentration of 50 ug/mL;++ indicates 80-90%lysis of parasites.
In test [37] the test system is Leishmania braziliensis. Description: Tested in vitro for leishmanicidal activity against Leishmania brasiliensis (2903) at the concentration of 50 ug/mL; ++ indicates 80-90%lysis of parasites.
In test [38] the test system is Leishmania braziliensis. In words: Tested in vitro for leishmanicidal activity against Leishmania brasiliensis (2903) at the concentration of 50 ug/mL; + indicates Less than 70% lysis of parasites.

This passage reports Activity results from ChEMBL document CHEMBL1135076, “Leishmanicidal activity of some aliphatic diamines and amino-alcohols” (Bioorg Med Chem Lett, 2002).

The structures appear in SMILES notation.

Consider `CCCCCCCCCCCCCCC(N)CNCC(=O)O` (stereo not given), for which the Activity in the test with Leishmania braziliensis [1] was 80-90% lysis of parasites; with Leishmania donovani [2], “+”; in the test with Leishmania amazonensis [3], 80-90% lysis of parasites; in the test with Leishmania braziliensis [4], 80-90% lysis of parasites; in the test on Leishmania amazonensis [5] it was 80-90% lysis of parasites; with Leishmania donovani [6], 80-90% lysis of parasites. Further, the Activity in the test with Leishmania donovani [7], with Leishmania braziliensis [8], in the test on Leishmania amazonensis [9], in the test with Leishmania donovani [10], in the test with Leishmania braziliensis [11] and in the test on Leishmania amazonensis [12] was 80-90% lysis of parasites in each case.

`CCCCCCCCCCCCCCC(N)CNCC(=O)OCC` (stereo not given): the Activity entry with Leishmania donovani [2] is “+”; in the test on Leishmania amazonensis [3], “Less than 70% lysis of parasites”; with Leishmania donovani [13] it was “Less than 70% lysis of parasites”; in the test with Leishmania braziliensis [14] it was “Less than 70% lysis of parasites”; with Leishmania braziliensis [4], “Less than 70% lysis of parasites”; with Leishmania amazonensis [15], “Less than 70% lysis of parasites”. Besides, the Activity result with Leishmania braziliensis [16] was “+”; with Leishmania amazonensis [9], “Less than 70% lysis of parasites”; in the test with Leishmania donovani [10] it was “Less than 70% lysis of parasites”; in the test on Leishmania donovani [17], “Less than 70% lysis of parasites”; in the test on Leishmania amazonensis [12], “+”; in the test with Leishmania braziliensis [18], “Less than 70% lysis of parasites”.

As to `CCCCCCCCCCCCCCC(CN(CC(=O)OCC)CC(=O)OCC)NC(=O)OC(C)(C)C` (stereo not given), the Activity in the test on Leishmania braziliensis [1], with Leishmania donovani [2], with Leishmania amazonensis [19], in the test with Leishmania amazonensis [5], in the test on Leishmania braziliensis [20] and in the test on Leishmania donovani [6] was 80-90% lysis of parasites in each case. Also, the Activity in the test with Leishmania donovani [7], with Leishmania braziliensis [8], with Leishmania amazonensis [9], in the test on Leishmania donovani [21], with Leishmania braziliensis [11] and in the test on Leishmania amazonensis [12] was 80-90% lysis of parasites in each case.

For `CCCCCCCCCCCCCCC(CO)N(CC)CC` (stereo not given), the Activity result with Leishmania donovani [2] was “+”; in the test on Leishmania amazonensis [19], “+”; with Leishmania donovani [13] it was 80-90% lysis of parasites; in the test on Leishmania amazonensis [15], 80-90% lysis of parasites; in the test on Leishmania amazonensis [9] it was 80-90% lysis of parasites; in the test on Leishmania donovani [21], “+”. The Activity in the test with Leishmania donovani [17] was 80-90% lysis of parasites; in the test with Leishmania braziliensis [22], 80-90% lysis of parasites; in the test on Leishmania amazonensis [12] it was “+”.

For the molecule `CCCCCCCCCCCCCCC(CN(CC)CC)NC(=O)CCCC(=O)O` (stereo not given), the Activity result in the test with Leishmania donovani [2] was “+”; in the test with Leishmania amazonensis [19], “+”; in the test with Leishmania donovani [13] it was 80-90% lysis of parasites; with Leishmania amazonensis [23], 80-90% lysis of parasites; in the test on Leishmania donovani [24], 80-90% lysis of parasites; with Leishmania braziliensis [16] it was “+”. Further, the Activity in the test on Leishmania amazonensis [9] was 80-90% lysis of parasites; in the test with Leishmania braziliensis [25], 80-90% lysis of parasites; in the test on Leishmania donovani [21], “+”; in the test with Leishmania amazonensis [12], “+”; in the test with Leishmania braziliensis [18], 80-90% lysis of parasites.

Regarding `CCCCCCCCCCCCCCC(CO)NC(=O)CCCC(=O)O` (stereo not given), the Activity was 80-90% lysis of parasites in the test on Leishmania donovani [26]; “+” with Leishmania donovani [2]; 80-90% lysis of parasites with Leishmania donovani [13]; 80-90% lysis of parasites in the test with Leishmania amazonensis [27]; 80-90% lysis of parasites in the test with Leishmania amazonensis [15]; 80-90% lysis of parasites with Leishmania amazonensis [9]. Also, the Activity was 80-90% lysis of parasites in the test on Leishmania braziliensis [28]; 80-90% lysis of parasites with Leishmania braziliensis [29]; 80-90% lysis of parasites with Leishmania donovani [17]; 80-90% lysis of parasites with Leishmania braziliensis [30]; “+” in the test with Leishmania amazonensis [12].

Regarding `CCCCCCCCCCCCCCC(COCc1ccccc1)NCC` (stereo not given), the Activity entry in the test on Leishmania donovani [2] was “+”; in the test with Leishmania amazonensis [19], “+”; with Leishmania donovani [13], 80-90% lysis of parasites; in the test on Leishmania braziliensis [31], 80-90% lysis of parasites; in the test on Leishmania amazonensis [9], 80-90% lysis of parasites; with Leishmania amazonensis [32] it was 80-90% lysis of parasites. Also, the Activity in the test on Leishmania donovani [21] is 80-90% lysis of parasites; in the test with Leishmania braziliensis [33], 80-90% lysis of parasites; in the test with Leishmania amazonensis [12] it was “+”; in the test on Leishmania donovani [34], 80-90% lysis of parasites.

`CCCCCCCCCCCCCCC(N)CNC(=O)CCCC(=O)O` (stereo not given): the Activity entry with Leishmania donovani [2] is “+”; with Leishmania amazonensis [19], “+”; with Leishmania donovani [13] it was 80-90% lysis of parasites; with Leishmania braziliensis [16], “+”; in the test with Leishmania amazonensis [9], 80-90% lysis of parasites; in the test with Leishmania braziliensis [25], 80-90% lysis of parasites. Besides, the Activity was 80-90% lysis of parasites in the test with Leishmania amazonensis [32]; “+” with Leishmania donovani [21]; “+” in the test on Leishmania amazonensis [12]; 80-90% lysis of parasites in the test with Leishmania braziliensis [18]; 80-90% lysis of parasites with Leishmania donovani [34].

As to `CCCCCCCCCCCCCCC(CO)NCC(=O)OCC` (stereo not given), the Activity result with Leishmania donovani [2] was “+”; in the test on Leishmania donovani [13], 80-90% lysis of parasites; with Leishmania amazonensis [35], 80-90% lysis of parasites; with Leishmania amazonensis [15] it was 80-90% lysis of parasites; in the test on Leishmania donovani [36] it was 80-90% lysis of parasites; with Leishmania amazonensis [9] it was 80-90% lysis of parasites. Further, the Activity in the test on Leishmania braziliensis [29] is 80-90% lysis of parasites; in the test with Leishmania donovani [17] it was 80-90% lysis of parasites; in the test on Leishmania braziliensis [37], 80-90% lysis of parasites; in the test on Leishmania braziliensis [30] it was 80-90% lysis of parasites; in the test with Leishmania amazonensis [12], “+”.

As for `CCCCCCCCCCCCCCC(CO)NCC(=O)O` (stereo not given), the Activity result in the test on Leishmania braziliensis [1] is “Less than 70% lysis of parasites”; with Leishmania donovani [2], “+”; in the test with Leishmania amazonensis [3], “Less than 70% lysis of parasites”; in the test on Leishmania braziliensis [38], “Less than 70% lysis of parasites”; in the test with Leishmania amazonensis [15] it was “Less than 70% lysis of parasites”; in the test with Leishmania donovani [7], “Less than 70% lysis of parasites”. For the same molecule, the Activity entry with Leishmania amazonensis [9] was “Less than 70% lysis of parasites”; with Leishmania donovani [10], “Less than 70% lysis of parasites”; with Leishmania donovani [17], “Less than 70% lysis of parasites”; in the test on Leishmania braziliensis [30], “Less than 70% lysis of parasites”; in the test on Leishmania amazonensis [12], “+”.
